According to patent US10399939B2, “Tetrahydronaphthalene estrogen receptor modulators and uses thereof” (Genentech, Inc., priority 2015, dated 2019):

Biological target: ER-alpha (WT) (Homo sapiens (Human), UniProt P03372)
Assay: Breast Cancer Cell ERa High Content Fluorescence Imaging Degradation Assay (ER-alpha MCF7 HCS)
Format: cell-based
Details: MCF7 breast cancer cells; for EC50 / ER-alpha (WT) MCF7 HCS (EC50): 4 hours incubation, inflexion point of curve; for ER-alpha (WT) MCF7 HCS (S inf): plateau of the maximal effect (ERa degradation), DMSO and 5 nM Fulvestrant define 0% and 100% changes in ESR1
Description: Example 901: Breast Cancer Cell ERa High Content Fluorescence Imaging Degradation Assay
MCF7 breast cancer cells were seeded on day 1 at a density of 10,000 cells per well in 384 well poly-lysine coated tissue culture plate (Greiner # T-3101-4), in 50 µL/well RPMI (phenol red free), 10% FBS (Charcoal stripped), containing L-glutamine. […] Compounds and controls were dispensed using a Labcyte Echo acoustic dispenser to dispense compounds with a pre-defined serial dilution (1.8×, 10 point, in duplicate) and appropriate backfill and control compounds (final total volume transferred was 417.5 nL and compound dispense volume ranges from 2.5 nL to 417.5 nL; 0.84% DMSO (v/v) final), ultimately producing a concentration range from 0.05 nM to 835 nM. Cell plates were incubated at 37° C., for 4 hours. Fixation and permeabilization were carried out using a Biotek EL406 plate washer and dispenser as follows. Cells were fixed by addition of 15 μL of 16% paraformaldehyde (Electron Microscopy Sciences #15710-S) directly to the 50 μL cell culture medium in each well using the peristaltic pump 5 μL cassette on a Biotek EL406 (final concentration of formaldehyde was 3.7% w/v). Samples were incubated 30 minutes. Well contents was aspirated and 50 μL/well of Phosphate Buffered Saline (PBS) containing 0.5% w/v bovine serum albumen, 0.5% v/v Triton X-100 (Antibody Dilution Buffer) was added to each well. Samples were incubated for 30 minutes. Well contents were aspirated and washed 3 times with 100 μL/well of PBS. Immunofluorescence staining of estrogen receptor alpha (ESR1) was carried out using a Biotek EL406 plate washer and dispenser as follows. The well supernatant was aspirated from the wells and 25 μL/well of anti-ESR1 mAb (F10) (Santa Cruz sc-8002) diluted 1:1000 in Antibody Dilution Buffer was dispensed. Samples were incubated for 2 hours at room temperature. Samples were washed 4 times with 100 μL/well of PBS. 25 μL (microliters)/well of secondary antibody solution (Alexafluor® 488 conjugate anti-mouse IgG (LifeTechnologies #A21202) diluted 1:1000 and Hoechst 33342 1 μg/ml diluted in Antibody Dilution Buffer) were dispensed into each well. Samples were incubated for 2 hours at room temperature. Samples were washed 3 times with 100 μL/well of PBS using a Biotek EL406. Quantitative fluorescence imaging of ESR1 was carried out using a Cellomics Arrayscan V® (Thermo). Fluorescence images of the samples (Channel 1: XF53 Hoechst (DNA stain); Channel 2: XF53 FITC (ESR1 stain)) were acquired using a Cellomics VTI Arrayscan using the Bioapplication “Compartmental Analysis” using the auto-exposure (based on DMSO control wells) setting “peak target percentile” set to 25% target saturation for both channels. Channel 1 (DNA stain) was used to define the nuclear region (Circ). Measurements of “Mean_CircAvgIntCh2”, which is the Alexafluor 488 fluorescence intensity (ESR1) within the nuclear region, was measured on a per cell basis and averaged over all the measured cells. Data analysis was carried out using Genedata Screener Software, with DMSO and 5 nM Fulvestrant treated samples being used to define the 0% and 100% changes in ESR1. The “Robust Fit” method was used to define the inflexion point of curve (EC50) and the plateau of the maximal effect (Sinf).

Chain of ER-alpha (WT) (P03372 whole entry): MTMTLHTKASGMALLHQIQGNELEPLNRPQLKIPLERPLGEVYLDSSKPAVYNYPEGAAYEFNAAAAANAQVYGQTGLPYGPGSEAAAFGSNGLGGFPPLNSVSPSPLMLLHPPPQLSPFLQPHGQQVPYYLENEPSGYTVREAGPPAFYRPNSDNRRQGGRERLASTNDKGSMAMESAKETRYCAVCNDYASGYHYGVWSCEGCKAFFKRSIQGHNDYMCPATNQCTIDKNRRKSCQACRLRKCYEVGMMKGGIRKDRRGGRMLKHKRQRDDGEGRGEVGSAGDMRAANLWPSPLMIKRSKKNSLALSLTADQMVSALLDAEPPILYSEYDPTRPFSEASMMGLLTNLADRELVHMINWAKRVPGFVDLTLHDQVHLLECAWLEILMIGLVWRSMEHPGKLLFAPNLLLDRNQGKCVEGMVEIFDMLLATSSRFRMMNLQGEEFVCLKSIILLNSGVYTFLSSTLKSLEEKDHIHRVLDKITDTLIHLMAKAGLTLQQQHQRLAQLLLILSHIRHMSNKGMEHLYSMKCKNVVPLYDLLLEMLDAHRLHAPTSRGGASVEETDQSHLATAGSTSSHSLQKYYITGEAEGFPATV

Oc1ccc2c(c1)CC[C@H](c1ccccc1)[C@@H]2c1ccc(OCCN2CC(CF)C2)cc1F [Compound 120, (5S,6S)-5-(2-fluoro-4-(2-(3-(fluoromethyl)azetidin-1-yl)ethoxy)phenyl)-6-phenyl-5,6,7,8-tetrahydronaphthalen-2-ol]
EC50: 0.036 nM
ER-alpha (WT) MCF7 HCS (S inf): −98.8%

Oc1ccc2c(c1)CCC1(CCCC1)[C@H]2c1ccc(OCCN2CC(CF)C2)cc1 [Compound 121, (S)-1′-(4-(2-(3-(fluoromethyl)azetidin-1-yl)ethoxy)phenyl)-3′,4′-dihydro-1′H-spiro[cyclopentane-1,2′-naphthalen]-6′-ol]
EC50: 0.208 nM
ER-alpha (WT) MCF7 HCS (S inf): −98.5%

Oc1ccc2c(c1)CCC1(CCCC1)[C@@H]2c1ccc(OCCN2CC(CF)C2)cc1 [Compound 122, (R)-1′-(4-(2-(3-(fluoromethyl)azetidin-1-yl)ethoxy)phenyl)-3′,4′-dihydro-1′H-spiro[cyclopentane-1,2′-naphthalen]-6′-ol]
EC50: 0.451 nM
ER-alpha (WT) MCF7 HCS (S inf): −99.2%

C[C@@H](COc1ccc([C@@H]2c3ccc(O)cc3CC[C@@H]2c2ccccc2)cc1)N1CC[C@@H](CF)C1 [Compound 123, (5R,6S)-5-(4-((S)-2-((R)-3-(fluoromethyl)pyrrolidin-1-yl)propoxy)phenyl)-6-phenyl-5,6,7,8-tetrahydronaphthalen-2-ol]
EC50: 16.9 nM
ER-alpha (WT) MCF7 HCS (S inf): −30%

C[C@@H](COc1ccc([C@H]2c3ccc(O)cc3CC[C@H]2c2ccccc2)cc1)N1CC[C@@H](CF)C1 [Compound 124, (5S,6R)-5-(4-((S)-2-((R)-3-(fluoromethyl)pyrrolidin-1-yl)propoxy)phenyl)-6-phenyl-5,6,7,8-tetrahydronaphthalen-2-ol]
EC50: 0.0371 nM
ER-alpha (WT) MCF7 HCS (S inf): −93.4%

C[C@H](CN1CC[C@@H](CF)C1)Oc1ccc([C@@H]2c3ccc(O)cc3CC[C@@H]2c2ccccc2)cc1 [Compound 125, (5R,6S)-5-(4-(((R)-1-((R)-3-(fluoromethyl)pyrrolidin-1-yl)propan-2-yl)oxy)phenyl)-6-phenyl-5,6,7,8-tetrahydronaphthalen-2-ol]
ER-alpha (WT) MCF7 HCS (EC50): >0.10 µmol

C[C@H](CN1CC[C@@H](CF)C1)Oc1ccc([C@H]2c3ccc(O)cc3CC[C@H]2c2ccccc2)cc1 [Compound 126, (5S,6R)-5-(4-(((R)-1-((R)-3-(fluoromethyl)pyrrolidin-1-yl)propan-2-yl)oxy)phenyl)-6-phenyl-5,6,7,8-tetrahydronaphthalen-2-ol]
EC50: 0.675 nM
ER-alpha (WT) MCF7 HCS (S inf): −97.1%

Oc1ccc2c(c1)CC[C@H](c1ccccc1)[C@@H]2c1ccc(OCCN2CC(CF)C2)nc1 [Compound 127, (5S,6S)-5-(6-(2-(3-(fluoromethyl)azetidin-1-yl)ethoxy)pyridin-3-yl)-6-phenyl-5,6,7,8-tetrahydronaphthalen-2-ol]
EC50: 0.0461 nM
ER-alpha (WT) MCF7 HCS (S inf): −96.5%

Oc1ccc2c(c1)CC[C@@H](c1ccccc1)[C@H]2c1ccc(OCCN2CC(CF)C2)nc1 [Compound 128, (5R,6R)-5-(6-(2-(3-(fluoromethyl)azetidin-1-yl)ethoxy)pyridin-3-yl)-6-phenyl-5,6,7,8-tetrahydronaphthalen-2-ol]
EC50: 12.5 nM
ER-alpha (WT) MCF7 HCS (S inf): −84%

Oc1ccc2c(c1)CC[C@@H](c1ccccc1)[C@H]2c1ccc(OC2CN(CCCF)C2)cc1 [Compound 129, (5S,6R)-5-(4-((1-(3-fluoropropyl)azetidin-3-yl)oxy)phenyl)-6-phenyl-5,6,7,8-tetrahydronaphthalen-2-ol]
ER-alpha (WT) MCF7 HCS (EC50): >0.10 µmol

Oc1ccc2c(c1)CC[C@H](c1ccccc1)[C@@H]2c1ccc(OC2CN(CCCF)C2)cc1 [Compound 130, (5R,6S)-5-(4-((1-(3-fluoropropyl)azetidin-3-yl)oxy)phenyl)-6-phenyl-5,6,7,8-tetrahydronaphthalen-2-ol]
EC50: 0.107 nM
ER-alpha (WT) MCF7 HCS (S inf): −99.3%

Oc1ccc2c(c1)CC[C@@H](c1ccccc1)[C@H]2c1ccc(NC2CN(CCCF)C2)cc1 [Compound 131, (5S,6R)-5-(4-((1-(3-fluoropropyl)azetidin-3-yl)amino)phenyl)-6-phenyl-5,6,7,8-tetrahydronaphthalen-2-ol]
EC50: 13.8 nM
ER-alpha (WT) MCF7 HCS (S inf): −35%

Oc1ccc2c(c1)CC[C@H](c1ccccc1)[C@@H]2c1ccc(NC2CN(CCCF)C2)cc1 [Compound 132, (5R,6S)-5-(4-((1-(3-fluoropropyl)azetidin-3-yl)amino)phenyl)-6-phenyl-5,6,7,8-tetrahydronaphthalen-2-ol]
EC50: 0.029 nM
ER-alpha (WT) MCF7 HCS (S inf): −99.9%

N#Cc1ccc([C@H]2CCc3cc(O)ccc3[C@H]2c2ccc(OCCN3CC(CF)C3)cc2)cc1 [Compound 133, 4-((1R,2S)-1-(4-(2-(3-(fluoromethyl)azetidin-1-yl)ethoxy)phenyl)-6-hydroxy-1,2,3,4-tetrahydronaphthalen-2-yl)benzonitrile]
EC50: 53 nM
ER-alpha (WT) MCF7 HCS (S inf): −30%

N#Cc1ccc([C@@H]2CCc3cc(O)ccc3[C@@H]2c2ccc(OCCN3CC(CF)C3)cc2)cc1 [Compound 134, 4-((1S,2R)-1-(4-(2-(3-(fluoromethyl)azetidin-1-yl)ethoxy)phenyl)-6-hydroxy-1,2,3,4-tetrahydronaphthalen-2-yl)benzonitrile]
EC50: 0.0385 nM
ER-alpha (WT) MCF7 HCS (S inf): −99.2%

Oc1cccc2c1[C@@H](c1ccc(OCCN3CC(CF)C3)cc1)[C@@H](c1ccccc1)CC2 [Compound 135, (7S,8R)-8-(4-(2-(3-(fluoromethyl)azetidin-1-yl)ethoxy)phenyl)-7-phenyl-5,6,7,8-tetrahydronaphthalen-1-ol]
EC50: 29.8 nM
ER-alpha (WT) MCF7 HCS (S inf): −82%

Oc1cccc2c1[C@H](c1ccc(OCCN3CC(CF)C3)cc1)[C@H](c1ccccc1)CC2 [Compound 136, (7R,8S)-8-(4-(2-(3-(fluoromethyl)azetidin-1-yl)ethoxy)phenyl)-7-phenyl-5,6,7,8-tetrahydronaphthalen-1-ol]
EC50: 186 nM
ER-alpha (WT) MCF7 HCS (S inf): −80%

Oc1ccc2c(c1)CC[C@H](c1ccccc1)[C@@H]2c1ccc(NCCN2CC(CF)C2)cc1 [Compound 137, (5R,6S)-5-(4-((2-(3-(fluoromethyl)azetidin-1-yl)ethyl)amino)phenyl)-6-phenyl-5,6,7,8-tetrahydronaphthalen-2-ol]
EC50: 186 nM
ER-alpha (WT) MCF7 HCS (S inf): −80%

Oc1ccc2c(c1)CC[C@@H](c1ccccc1)[C@H]2c1ccc(NCCN2CC(CF)C2)cc1 [Compound 138, (5S,6R)-5-(4-((2-(3-(fluoromethyl)azetidin-1-yl)ethyl)amino)phenyl)-6-phenyl-5,6,7,8-tetrahydronaphthalen-2-ol]
EC50: 0.203 nM
ER-alpha (WT) MCF7 HCS (S inf): −89.89%

Oc1ccc2c(c1)CC[C@H](c1ccccc1)[C@@H]2c1ccc(NCCN2CC[C@@H](CF)C2)cc1 [Compound 139, (5R,6S)-5-(4-((2-((R)-3-(fluoromethyl)pyrrolidin-1-yl)ethyl)amino)phenyl)-6-phenyl-5,6,7,8-tetrahydronaphthalen-2-ol]
EC50: 228 nM
ER-alpha (WT) MCF7 HCS (S inf): −50%

Oc1ccc2c(c1)CC[C@@H](c1ccccc1)[C@H]2c1ccc(NCCN2CC[C@@H](CF)C2)cc1 [Compound 140, (5S,6R)-5-(4-((2-((R)-3-(fluoromethyl)pyrrolidin-1-yl)ethyl)amino)phenyl)-6-phenyl-5,6,7,8-tetrahydronaphthalen-2-ol]
EC50: 0.773 nM
ER-alpha (WT) MCF7 HCS (S inf): −45%
